Measured values taken from patent US20260184663A1, “INDENE COMPOUNDS, PHARMACEUTICAL COMPOSITIONS THEREOF, AND THEIR THERAPEUTIC APPLICATIONS” (NucMito Pharmaceuticals co. Ltd., priority 2022, published 2026).

What was measured:
Format in all cases: cell-based
[1] = tested on: B16F10 (malignant melanoma); experiment: Antiproliferative activity (CCK-8 cell viability), B16F10; details: Mus musculus, 72 h, read-out: Antiproliferative activity in cancerous cells, B16F10 (inhibition of cell growth); for inhibition at 3.3 µM: B16-F10, Compound concentration: 3.3 μM; for inhibition at 10 µM: B16-F10, Compound concentration: 10 μM; for inhibition at 30 µM: B16-F10, Compound concentration: 30 μM
Procedure, shortened: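 Attached B16F10 cells in 96-well plates were incubated with compound at 37° C for 72 h, followed by 10 μL CCK-8 reagent per well and a further 4 h incubation. A multi-well plate reader measured absorbance at 450 nm. Percent viability across replicates was calculated against DMSO vehicle-treated cells.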

SW480 (colon cancer) = experiment: Antiproliferative activity (CCK-8 cell viability), SW480; details: Homo sapiens, 72 h, read-out: Antiproliferative activity in cancerous cells, SW480 (inhibition of cell growth); for inhibition at 3.3 µM: Compound concentration: 3.3 μM; for inhibition at 10 µM: Compound concentration: 10 μM; for inhibition at 30 µM: Compound concentration: 30 μM
Procedure, shortened: (§1)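 Cells were seeded at 2,000-5,000/well (HeLa in MEM, HepG2 and SW480 in DMEM, A549 in F-12K, all with 10% FBS) and treated with compound at 3.3, 10 or 30 μM for 72 h at 37° C. CCK-8 was added for 4 h, absorbance was read at 450 nm, and viability was expressed relative to DMSO-treated wells.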

HepG2 (liver cancer) = experiment: Antiproliferative activity (CCK-8 cell viability), HepG2; details: Homo sapiens, 72 h, read-out: Antiproliferative activity in cancerous cells, HepG2 (inhibition of cell growth); for inhibition at 3.3 µM: Compound concentration: 3.3 μM; for inhibition at 10 µM: Compound concentration: 10 μM; for inhibition at 30 µM: Compound concentration: 30 μM
Procedure, shortened: as §1

HeLa (cervical cancer) = experiment: Antiproliferative activity (CCK-8 cell viability), HeLa; details: Homo sapiens, 72 h, read-out: Antiproliferative activity in cancerous cells, HELA (inhibition of cell growth); for inhibition at 3.3 µM: Compound concentration: 3.3 μM; for inhibition at 10 µM: Compound concentration: 10 μM; for inhibition at 30 µM: Compound concentration: 30 μM
Procedure, shortened: as §1

[2] = tested on: MDA-MB-231 (breast cancer); experiment: Antiproliferative activity (CCK-8 cell viability), MDA-MB-231; details: Homo sapiens, 72 h, read-out: Antiproliferative activity in cancerous cells, MDA-MB-231 (inhibition of cell growth); for inhibition at 3.3 µM: Compound concentration: 3.3 μM; for inhibition at 10 µM: Compound concentration: 10 μM; for inhibition at 30 µM: Compound concentration: 30 μM
Procedure, shortened: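 In this CCK-8 viability assay, MDA-MB-231 cells maintained in Dulbecco's modified Eagle's medium containing 10% fetal bovine serum were placed in 96-well plates (2,000-5,000 cells/well) and treated with compound for 72 h at 37° C. A 4 h incubation with 10 μL CCK-8 followed, plates were read at 450 nm, and viability was expressed against DMSO vehicle wells across replicates.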

[3] = tested on: A431 (epidermoid carcinoma); experiment: Antiproliferative activity (CCK-8 cell viability), A431; details: Homo sapiens, 72 h, read-out: Antiproliferative activity in cancerous cells, A431 (inhibition of cell growth); for inhibition at 3.3 µM: A-431, Compound concentration: 3.3 μM; for inhibition at 10 µM: A-431, Compound concentration: 10 μM; for inhibition at 30 µM: A-431, Compound concentration: 30 μM
Procedure, shortened: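 Cell viability of compound-treated A431 cells was measured with a Cell Counting Kit-8. Each well received 10 μL of CCK-8 after 72 h of compound exposure, followed by 4 h incubation at 37° C. and a 450 nm plate-reader measurement. Percent viability was calculated relative to DMSO controls across replicates.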

[4] = tested on: A549 (lung adenocarcinoma); experiment: Antiproliferative activity (CCK-8 cell viability), A549; details: Homo sapiens, 72 h, read-out: Antiproliferative activity in cancerous cells, A549 (inhibition of cell growth); for inhibition at 3.3 µM: Compound concentration: 3.3 μM; for inhibition at 10 µM: Compound concentration: 10 μM; for inhibition at 30 µM: Compound concentration: 30 μM
Procedure, shortened: as §1

SMILES | inhibition at 3.3 µM [1] | inhibition at 10 µM [1] | inhibition at 30 µM [1] | inhibition at 3.3 µM (SW480 (colon cancer)) | inhibition at 10 µM (SW480 (colon cancer)) | inhibition at 30 µM (SW480 (colon cancer)) | inhibition at 3.3 µM (HepG2 (liver cancer)) | inhibition at 10 µM (HepG2 (liver cancer)) | inhibition at 30 µM (HepG2 (liver cancer)) | inhibition at 3.3 µM (HeLa (cervical cancer)) | inhibition at 10 µM (HeLa (cervical cancer)) | inhibition at 30 µM (HeLa (cervical cancer)) | inhibition at 3.3 µM [2] | inhibition at 10 µM [2] | inhibition at 30 µM [2] | inhibition at 3.3 µM [3] | inhibition at 10 µM [3] | inhibition at 30 µM [3] | inhibition at 3.3 µM [4] | inhibition at 10 µM [4] | also measured
CCc1ccc(Oc2ccc(/C=C3\C(C)=C(CC(=O)O)c4cc(Cl)ccc43)cc2)cc1 [E31, (E)-2-(5-Chloro-1-(4-(4-ethylphenoxy)benzylidene)-2-methyl-1H-inden-3-yl)acetic acid] | 30 to 50% | ≥ 50% | ≥ 50% | 30 to 50% | 30 to 50% | ≥ 50% | < 30% | ≥ 50% | ≥ 50% | ≥ 50% | ≥ 50% | ≥ 50% | ≥ 50% | ≥ 50% | ≥ 50% | ≥ 50% | ≥ 50% | ≥ 50% | ≥ 50% | ≥ 50% | inhibition at 30 µM [4]: ≥ 50%
CC1=C(CC(=O)O)c2cc(Br)ccc2/C1=C/c1ccc(Oc2ccc(F)cc2)cc1 [E32, (E)-2-(5-Bromo-1-(4-(4-fluorophenoxy)benzylidene)-2-methyl-1H-inden-3-yl)acetic acid] | ≥ 50% | ≥ 50% | ≥ 50% | 30 to 50% | ≥ 50% | ≥ 50% | < 30% | ≥ 50% | ≥ 50% | ≥ 50% | ≥ 50% | ≥ 50% | ≥ 50% | ≥ 50% | ≥ 50% | ≥ 50% | ≥ 50% | ≥ 50% | 30 to 50% | ≥ 50% | inhibition at 30 µM [4]: ≥ 50%
CC1=C(CC(=O)O)c2c(Cl)cc(Cl)cc2/C1=C/c1ccc(Oc2ccc(F)cc2)cc1 [E33, (E)-2-(4,6-Dichloro-1-(4-(4-fluorophenoxy)benzylidene)-2-methyl-1H-inden-3-yl)acetic acid] | ≥ 50% | ≥ 50% | ≥ 50% | < 30% | 30 to 50% | ≥ 50% | < 30% | ≥ 50% | ≥ 50% | 30 to 50% | ≥ 50% | ≥ 50% | < 30% | ≥ 50% | ≥ 50% | ≥ 50% | ≥ 50% | ≥ 50% | < 30% | ≥ 50% | inhibition at 30 µM [4]: ≥ 50%
CC1=C(CC(=O)O)c2cc(F)ccc2/C1=C/c1ccc(CO)cc1 [E40, (E)-2-(5-Fluoro-1-(4-(hydroxymethyl)benzylidene)-2-methyl-1H-inden-3-yl)acetic acid] | < 30% | < 30% | 30 to 50% | < 30% | ≥ 50% | ≥ 50% | < 30% | < 30% | < 30% | < 30% | < 30% | ≥ 50% | < 30% | ≥ 50% | ≥ 50% | < 30% | ≥ 50% | ≥ 50% | < 30% | ≥ 50% | inhibition at 30 µM [4]: ≥ 50%
CC1=C(CC(=O)O)c2cc(Cl)ccc2/C1=C/c1ccc(Oc2ccc(F)cc2)cc1 [E41, (E)-2-(5-Chloro-1-(4-(4-fluorophenoxy)benzylidene)-2-methyl-1H-inden-3-yl)acetic acid] | < 30% | ≥ 50% | ≥ 50% | 30 to 50% | ≥ 50% | ≥ 50% | < 30% | ≥ 50% | ≥ 50% | < 30% | ≥ 50% | ≥ 50% | < 30% | ≥ 50% | ≥ 50% | ≥ 50% | ≥ 50% | ≥ 50% | < 30% | 30 to 50% | inhibition at 30 µM [4]: ≥ 50%
CC1=C(CC(=O)O)c2cc(F)ccc2/C1=C/c1ccc(Oc2ccc(Cl)cc2)cc1 [E42, (E)-2-(1-(4-(4-Chlorophenoxy)benzylidene)-5-fluoro-2-methyl-1H-inden-3-yl)acetic acid] | < 30% | 30 to 50% | ≥ 50% | 30 to 50% | ≥ 50% | ≥ 50% | < 30% | 30 to 50% | ≥ 50% | 30 to 50% | ≥ 50% | ≥ 50% | < 30% | < 30% | ≥ 50% | ≥ 50% | ≥ 50% | ≥ 50% | < 30% | 30 to 50% | inhibition at 30 µM [4]: ≥ 50%
